Laboratory results taken from patent US20220087960A1, “Oral Pharmaceutical Immediate Release Composition” (Aardvark Therapeutics Inc., priority 2020, published 2022).
Entries after “also recorded” stand apart in the source; their conditions may differ.

Tested on: diet-induced obesity (DIO) mouse model
Assay: 56-day DIO mouse weight loss study comparing DA and DB (Example 3)
Format: in vivo
Conditions: DIO mice
Excerpt: The 56-day study determined the behavioral effects of bitter taste receptor agonists denatonium acetate (DA) compared to denatonium benzoate (DB) in a diet-induced obesity (DIO) mouse model. […] The study duration was a 3-5 day acclimation period+[…] study period and 2-3 day testing period after study. […] The mice were C57BL/6NTad mice at least 12 weeks in age and 15 mice per group (low dose DA, higher dose DA, high dose DB and control). […] Metabolic biomarkers (blood glucose, blood insulin, blood HbA1c) were measured at the beginning and end of the study. The DA, DB or distilled water control was administered per ostium gavage (PO) at a volume of 5 mL/kg body weight.

CC(=O)[O-].CC[N+](CC)(CC(=O)Nc1c(C)cccc1C)Cc1ccccc1 [DA, Denatonium acetate]
body weights at the indicated days (FIG. 1) (56 day study, DA 23.1 mg/kg BID PO): lowest average body weights | body weight changes of the 56 day study (FIG. 2) (DA 23.1 mg/kg BID PO compared with DB 26.8 mg/kg BID): lowest increase in body weight; also recorded: weight loss improvement of higher dose DA over higher dose DB | serum insulin at the end of the 56 day study (FIG. 3) (DA 23.1 mg/kg BID PO, compared with pre-treatment and vehicle): close to baseline value
